Patent US5861388A, “Steroid inhibitors of estrone sulfatase and associated pharmaceutical compositions and methods of use” (SRI International, priority 1997, dated 1999)
pIC50: −log10 of the molar value.

Legend:
estrone sulfatase = molecular target: T1, estrone sulfatase (Homo sapiens, UniProt P08842); assay: Estrone sulfatase assay with intact MCF-7 cells; format: cell-based; conditions: concentration giving 50 % inhibition, 24 h, 3H-estrone sulfate substrate
T1 construct: Estrone Sulfatase Assay with Intact Cells; host or cells: MCF-7
T1 sequence (P08842 22-583): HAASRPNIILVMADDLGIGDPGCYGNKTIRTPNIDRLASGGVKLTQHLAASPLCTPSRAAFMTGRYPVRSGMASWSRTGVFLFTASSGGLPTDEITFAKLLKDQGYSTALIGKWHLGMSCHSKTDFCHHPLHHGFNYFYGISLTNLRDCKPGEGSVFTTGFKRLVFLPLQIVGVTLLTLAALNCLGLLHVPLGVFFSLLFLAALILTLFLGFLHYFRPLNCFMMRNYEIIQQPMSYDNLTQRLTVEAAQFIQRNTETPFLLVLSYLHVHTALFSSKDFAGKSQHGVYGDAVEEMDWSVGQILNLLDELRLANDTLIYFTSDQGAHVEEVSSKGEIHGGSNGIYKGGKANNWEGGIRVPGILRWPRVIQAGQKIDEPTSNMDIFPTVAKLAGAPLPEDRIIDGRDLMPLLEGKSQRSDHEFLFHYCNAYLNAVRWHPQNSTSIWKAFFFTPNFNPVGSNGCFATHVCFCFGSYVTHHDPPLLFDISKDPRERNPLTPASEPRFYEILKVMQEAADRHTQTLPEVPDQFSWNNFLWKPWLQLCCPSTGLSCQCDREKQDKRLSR
From the text: Test for the Effects of Inhibitors on Estrone Sulfatase Activity in MCF-7 Cells:
Reagents: MCF-7 human breast cancer cells were supplied by the American Type Culture Collection, Rockville, Md. Eagle's minimum essential medium (MEM) and fetal calf serum (FCS) were purchased from Sigma Chemical Company, St. Louis, Mo. [4-^14 C] Estrone, [6,7-^3 H] estradiol and [6,7-^3 H(N)] estrone sulfate were obtained from New England Nuclear Research Products, Boston, Mass.
Estrone Sulfatase Assay with Intact Cells. The procedure of Duncan et al., Cancer Res. 53:298-303 (1993) was followed. MCF-7 cells were seeded in 60×15 mm culture dishes at 1×10^5 cells/dish and maintained in 4.0 mL of MEM containing 2 mM of glutamine and 5% of FCS. The cells were incubated at 37° C. in a 5% CO2 /95% air atmosphere and 100% humidity, with the medium changed every third day. When the cells reach 80% confluency, the intact monolayers were washed once with Earl's balanced salt solution and incubated in 4.0 mL of serum-free MEM containing the substrate (^3 H-estrone sulfate, 7 pmol, 9×10^5 dpm) and inhibitor dissolved in ethanol or ethanol alone. The final ethanol concentration was always be below 1%. The incubation continued for 24 h. 2.0 mL of medium was transferred into separate tubes containing 7×10^3 dpm of ^14 C-estrone. The mixture was vortexed vigorously for 60 s with 5 mL of toluene. After phase separation, 2.0 mL of the organic phase was transferred into a counting vial for scintillation counting. The amount of estrone sulfate hydrolyzed was calculated on the basis of the ^3 H counts obtained, with the added ^14 C-estrone used to correct for recovery through the extraction procedure.
The cells remaining in each culture dish were washed with saline once and then scraped with 1.0 mL of 0.5N NaOH into 10×75 mm tubes. The cell pellets in each tube were incubated at 50° C. for 20 min. to ensure that digestion was complete and that all proteins became soluble. An aliquot was then taken for protein determination by Lowry's method (Lowry et al., J. Biol. Chem. 193:265-275 (1951)).
The amount of estrone sulfate hydrolyzed with the inhibitor relative to that without the inhibitor was evaluated to give the percentage of inhibition.

[1] = test system: MCF-7 human breast carcinoma xenografts; assay: Tumor growth inhibition assay, MCF-7 human breast carcinoma xenografts in athymic mice; format: in vivo, human MCF-7 xenografts in female BALB/c athymic mice; conditions: i.p. 1.0 mg/mouse/day for 5 weeks, mean ± S.E.
From the text: In Vivo Efficacy Studies Using MCF-7 Cells in Nude Mice: For in vivo evaluation, human xenografts were used in nude (athymic) mice, in the context of a solid tumor assay. MCF-7 human breast carcinomas in nude mice were used as the model for evaluating the estrone sulfatase inhibitors. The protocol followed was essentially that of Yue et al., J. Steroid Biochem. 44:671-673 (1993). Because MCF-7 cells are known to require supplementation with estradiol to sustain progressive growth in athymic nude mice (Soule et al., Cancer Lett. 10:177-189 (1980)), estrone sulfate was used for supplemental estrogen in the model studies. The enzyme inhibitors were administered by intravenous injection, oral gavage, and intraperitoneal administration, and comparative efficacy of the various compounds were evaluated using these different routes. Female BALB/c athymic mice 4-6 weeks of age were supplied by Charles River Breeding Laboratories, Boston, Mass. MCF-7 cells for the in vitro cell growth inhibition assay were obtained from the American Type Culture Collection, Rockville, Md., and cultured under the same conditions as described above for the sulfatase assay. Tumor Growth Inhibition Assay (see […] et al. (1990), supra, Yue et al., supra, and Noel et al., Biochem. Pharmacol. 43:1263-1267 (1992): The athymic mice were housed five per cage in controlled conditions of light and humidity and received food and water ad libitum throughout the entire experiment. The mice were quarantined for three working days before use in experiments. Prior to the initiation of the antitumor experiments, the mice were housed for seven days to familiarize them with the experimental environment. Temperature was maintained at 72±5° F., with relative humidity at 35-70% and a 12-h light/dark cycle. The mice were fed certified Purina rodent chow and drinking water ad libitum. The source water was recirculated, deionized, UV-treated, and filtered (5-μm filter). At the beginning of the experiment, all but five of the mice underwent oophorectomies to eliminate the endogenous level of estrogen. After all animals recovered from surgery, all mice in the study received 5 μmol of estrone sulfate daily via gavage or subcutaneous (sc) injection. The dosing of estrone sulfate was carried out throughout the entire experiment. Seven days after the animals began treatment with estrone sulfate, each mouse was be injected sc twice (once in each flank) with 2.5×10^6 MCF-7 cells suspended in 0.1 mL of serum-free tissue culture medium to induce tumor growth. The growth rate was determined by measuring the tumors with calipers weekly. Tumor volumes were calculated according to the formula 4/3πr1^2,r2, where r1 and r2 represent the tumor radii. When the average tumor volume per mouse reached approximately 200 mm^3, animals began to receive various doses of estrone sulfatase inhibitors dissolved in 0.1 mL of phosphate buffered saline (PBS). Dosing was by oral gavage, intravenous injection, and intraperitoneal injection; daily dosing with estrone sulfatase inhibitors was continued throughout the remainder of the experiment. The estrone sulfatase inhibitors not soluble in aqueous solutions were dissolved in EtOH first and diluted with PBS to obtain the appropriate concentrations of inhibitor but keeping the concentration of EtOH below 1%. For each test compound, the mice were divided into several groups with five animals in each group. These groups were as follows: intact control group receiving PBS alone; oophorectomized control group receiving PBS alone; and oophorectomized treatment groups receiving various doses of estrone sulfatase inhibitors. […] The change in tumor volume in the treatment groups relative to that in the oophorectomized control group gave the percent inhibition of a given inhibitor.

Row | Structure (SMILES) | pIC50 (estrone sulfatase) | other results
1 | CC(=O)O[C@H]1CC[C@H]2[C@@H]3CCc4cc5c(cc4[C@H]3CC[C@]12C)C=NS(=O)(=O)O5 [Compound 4, 17β-acetoxyestra-1,3,5(10)-trieno-[3,2,e]-1',2',3'-oxathiazine-2',2'-dioxide] | 7.92 | 
2 | C[C@]12CC[C@@H]3c4cc5c(cc4CC[C@H]3[C@@H]1CCC2=O)OS(=O)(=O)N=C5 [Compound 6, Estra-1,3,5(10)-trien-17-ono-[3,2,e]-1',2',3'-oxathiazine-2',2'-dioxide] | 8.03 | Tumor Volume, week 0 ([1]; week 0, control 96.5 ± 5.2): 133.6 ± 15.9 mm^3; Tumor Volume, week 1 ([1]; week 1, control 184.1 ± 26.3): 185.8 ± 16.5 mm^3; Tumor Volume, week 2 ([1]; week 2, control 191.2 ± 36.1): 191.3 ± 25.1 mm^3; Tumor Volume, week 3 ([1]; week 3, control 232.9 ± 46.4): 181.8 ± 27.8 mm^3; Tumor Volume, week 4 ([1]; week 4, control 299.5 ± 54.3): 234.0 ± 50.7 mm^3; Tumor Volume, week 5 ([1]; week 5, control 349.0 ± 46.2): 285.8 ± 47.7 mm^3
3 | C[C@]12CC[C@@H]3c4cc5c(cc4CC[C@H]3[C@@H]1CC[C@@H]2O)OS(=O)(=O)N=C5 [Compound 10, 17β-hydroxyestra-1,3,5(10)-trieno-[3,2,e]-1',2',3'-oxathiazine-2',2'-dioxide] | 7.70 | 
4 | C[C@]12CC[C@@H]3c4cc5c(cc4CC[C@H]3[C@@H]1CC[C@@H]2O)OS(=O)(=O)NC5 [Compound 11, 17β-Hydroxyestra-1,3,5(10)-trieno-[3,2,e]-3',4'-dihydro-1',2',3'-oxathiazine-2',2'-dioxide] | 6.09 | 
5 | C[C@]12CC[C@@H]3c4ccc5c(c4CC[C@H]3[C@@H]1CCC2=O)C=NS(=O)(=O)O5 [Compound 13, estra-1,3,5(10)-trien-17-ono-[3,4,e]-1',2',3'-oxathiazine-2',2'-dioxide] | 7.36 | 
6 | C[C@]12CC[C@@H]3c4ccc5c(c4CC[C@H]3[C@@H]1CC[C@@H]2O)CNS(=O)(=O)O5 [Compound 14, 17β-Hydroxyestra-1,3,5(10)-trieno-[3,4,e]-3',4'-dihydro-1',2',3'-oxathiazine-2',2'-dioxide] | 4.82 | 
7 | CC[C@H]1CC[C@H]2[C@@H]3CCc4cc5c(cc4[C@H]3CC[C@]12C)C=NS(=O)(=O)O5 [Compound 17, 19-norpregna-1,3,5(10)-trieno-[3,2,e]-1',2',3'-oxathiazine-2',2'-dioxide] | 7.30 | 
8 | C=C1CC[C@H]2[C@@H]3CCc4cc5c(cc4[C@H]3CC[C@]12C)C=NS(=O)(=O)O5 [Compound 30, 17-methyleneestra-1,3,5(10)-trieno-[3,2,e]-1',2',3'-oxathiazine-2',2'-dioxide] | 7.14 | 
9 | C/C=C1/CC[C@H]2[C@@H]3CCc4cc5c(cc4[C@H]3CC[C@]12C)C=NS(=O)(=O)O5 [Compound 31, [17(20)Z]-norpregna-1,3,5(10),17(20)-tetraeno-[3,2,e]-1',2',3'-oxathiazine-2',2'-dioxide] | 7.20 | 
10 | CC/C=C1/CC[C@H]2[C@@H]3CCc4cc5c(cc4[C@H]3CC[C@]12C)C=NS(=O)(=O)O5 [Compound 32, [17(20)Z]-Propylideneestra-1,3,5(10)-trieno-[3,2,e]-1',2',3'-oxathiazine-2',2'-dioxide] | 7.24 | 
11 | CCC/C=C1/CC[C@H]2[C@@H]3CCc4cc5c(cc4[C@H]3CC[C@]12C)C=NS(=O)(=O)O5 [Compound 33, [17(20)Z]-19,21-dinorchola-1,3,5(10),17(20)-tetraeno-[3,2,e]-1',2',3'-oxathiazine-2',2'-dioxide] | 6.14 | 
12 | C[C@H]1CC[C@H]2[C@@H]3CCc4cc5c(cc4[C@H]3CC[C@]12C)C=NS(=O)(=O)O5 [Compound 34, 17β-methylestra-1,3,5(10)-trieno-[3,2,e]-1',2',3'-oxathiazine-2',2'-dioxide] | 7.35 | 
13 | CCC[C@H]1CC[C@H]2[C@@H]3CCc4cc5c(cc4[C@H]3CC[C@]12C)C=NS(=O)(=O)O5 [Compound 35, 17β-Propylestra-1,3,5(10)-trieno-[3,2,e]-1',2',3'-oxathiazine-2',2'-dioxide] | 6.92 | 
14 | CCCC[C@H]1CC[C@H]2[C@@H]3CCc4cc5c(cc4[C@H]3CC[C@]12C)C=NS(=O)(=O)O5 [Compound 36, 17β-19,21-dinorchola-1,3,5(10)-trieno-[3,2,e]-1',2',3'-oxathiazine-2',2'-dioxide] | 6.23 | 
15 | C=C=C1CC[C@H]2[C@@H]3CCc4cc5c(cc4[C@H]3CC[C@]12C)C=NS(=O)(=O)O5 [Compound 40, 19-Norpregna-1,3,5(10),17(20),20-pentaeno-[3,2,e]-1',2',3'-oxathiazine-2',2'-dioxide] | 7.13 | 
16 | CO[C@H]1CC[C@H]2[C@@H]3CCc4cc5c(cc4[C@H]3CC[C@]12C)C=NS(=O)(=O)O5 [Compound 43, 17β-methoxyestra-1,3,5(10)-trieno-[3,2,e]-1',2',3'-oxathiazine-2',2'-dioxide] | 7.30 | 
